Data as given in patent US20220162167A1, “SUBSTITUTED BICYCLIC AND TETRACYCLIC QUINONES AND USE THEREOF AS ANTI-CANCER AGENTS” (THE REGENTS OF THE UNIVERSITY OF MICHIGAN, priority 2019, published 2022).

Tests used:
Assay type in all cases: cell-based
HCT-116 = assay: NCI60 growth inhibition, HCT-116; conditions: Colon Cancer
Protocol: (§1) Representative compounds were tested in 60 cell lines (NCI60) at the National Cancer Institute, Developmental Therapeutics Program.
(§2) Representative compounds were tested in a panel of 60 cancer cells (NCI 60) at the National Cancer Institute. Growth inhibition are shown in table 2, table 3, table 4, table 5, and FIG. 1, FIG. 2, FIG. 3, FIG. 4, FIG. 5.

LOX IMVI = assay: NCI60 growth inhibition, LOX IMVI; conditions: Melanoma
Protocol: as §1, §2

SK-MEL-2 = assay: NCI60 growth inhibition, SK-MEL-2; conditions: Melanoma; note: test concentration or dose not given here
Protocol: as §1, §2

NCI-H226 = assay: NCI60 growth inhibition, NCI-H226; conditions: Non-Small Cell Lung Cancer; note: test concentration or dose not given here
Protocol: as §1, §2

UACC-257 = assay: NCI60 growth inhibition, UACC-257; conditions: Melanoma; note: test concentration or dose not given here
Protocol: as §1, §2

M14 = assay: NCI60 growth inhibition, M14; conditions: Melanoma
Protocol: as §1, §2

EKVX = assay: NCI60 growth inhibition, EKVX; conditions: Non-Small Cell Lung Cancer
Protocol: as §1, §2

HOP-62 = assay: NCI60 growth inhibition, HOP-62; conditions: Non-Small Cell Lung Cancer; note: test concentration or dose not given here
Protocol: as §1, §2

HOP-92 = assay: NCI60 growth inhibition, HOP-92; conditions: Non-Small Cell Lung Cancer
Protocol: as §1, §2

UACC-62 = assay: NCI60 growth inhibition, UACC-62; conditions: Melanoma; note: test concentration or dose not given here
Protocol: as §1, §2

NCI-H460 = assay: NCI60 growth inhibition, NCI-H460; conditions: Non-Small Cell Lung Cancer
Protocol: as §1, §2

CAKI-1 = assay: NCI60 growth inhibition, CAKI-1; conditions: Renal Cancer; note: test concentration or dose not given here
Protocol: as §1, §2

ACHN = assay: NCI60 growth inhibition, ACHN; conditions: Renal Cancer
Protocol: as §1, §2

SNB-75 = assay: NCI60 growth inhibition, SNB-75; conditions: CNS Cancer; note: test concentration or dose not given here
Protocol: as §1, §2

T-47D = assay: NCI60 growth inhibition, T-47D; conditions: Breast Cancer
Protocol: as §1, §2

K-562 = assay: NCI60 growth inhibition, K-562; conditions: Leukemia
Protocol: as §1, §2

RPMI-8226 = assay: NCI60 growth inhibition, RPMI-8226; conditions: Leukemia
Protocol: as §1, §2

SNB-19 = assay: NCI60 growth inhibition, SNB-19; conditions: CNS Cancer; note: test concentration or dose not given here
Protocol: as §1, §2

U251 = assay: NCI60 growth inhibition, U251; conditions: CNS Cancer
Protocol: as §1, §2

MALME-3M = assay: NCI60 growth inhibition, MALME-3M; conditions: Melanoma
Protocol: as §1, §2

SF-268 = assay: NCI60 growth inhibition, SF-268; conditions: CNS Cancer; note: test concentration or dose not given here
Protocol: as §1, §2

CCRF-CEM = assay: NCI60 growth inhibition, CCRF-CEM; conditions: Leukemia
Protocol: as §1, §2

SR = assay: NCI60 growth inhibition, SR; conditions: Leukemia
Protocol: as §1, §2

HCC-2998 = assay: NCI60 growth inhibition, HCC-2998; conditions: Colon Cancer
Protocol: as §1, §2

MCF7 = assay: NCI60 growth inhibition, MCF7; conditions: Breast Cancer
Protocol: as §1, §2

OVCAR-3 = assay: NCI60 growth inhibition, OVCAR-3; conditions: Ovarian Cancer
Protocol: as §1, §2

SW-620 = assay: NCI60 growth inhibition, SW-620; conditions: Colon Cancer; note: test concentration or dose not given here
Protocol: as §1, §2

NCI/ADR-RES = assay: NCI60 growth inhibition, NCI/ADR-RES; conditions: Ovarian Cancer
Protocol: as §1, §2

MDA-MB-435 = assay: NCI60 growth inhibition, MDA-MB-435; conditions: Melanoma
Protocol: as §1, §2

SF-539 = assay: NCI60 growth inhibition, SF-539; conditions: CNS Cancer
Protocol: as §1, §2

SN12C = assay: NCI60 growth inhibition, SN12C; conditions: Renal Cancer
Protocol: as §1, §2

OVCAR-5 = assay: NCI60 growth inhibition, OVCAR-5; conditions: Ovarian Cancer
Protocol: as §1, §2

UO-31 = assay: NCI60 growth inhibition, UO-31; conditions: Renal Cancer
Protocol: as §1, §2

BT-549 = assay: NCI60 growth inhibition, BT-549; conditions: Breast Cancer
Protocol: as §1, §2

SK-MEL-5 = assay: NCI60 growth inhibition, SK-MEL-5; conditions: Melanoma
Protocol: as §1, §2

MOLT-4 = assay: NCI60 growth inhibition, MOLT-4; conditions: Leukemia
Protocol: as §1, §2

TK-10 = assay: NCI60 growth inhibition, TK-10; conditions: Renal Cancer
Protocol: as §1, §2

KM12 = assay: NCI60 growth inhibition, KM12; conditions: Colon Cancer; note: test concentration or dose not given here
Protocol: as §1, §2

COLO 205 = assay: NCI60 growth inhibition, COLO 205; conditions: Colon Cancer
Protocol: as §1, §2

OVCAR-4 = assay: NCI60 growth inhibition, OVCAR-4; conditions: Ovarian Cancer; note: test concentration or dose not given here
Protocol: as §1, §2

HL-60(TB) = assay: NCI60 growth inhibition, HL-60(TB); conditions: Leukemia
Protocol: as §1, §2

PC-3 = assay: NCI60 growth inhibition, PC-3; conditions: Prostate Cancer
Protocol: as §1, §2

HS 578T = assay: NCI60 growth inhibition, HS 578T; conditions: Breast Cancer
Protocol: as §1, §2

A549/ATCC = assay: NCI60 growth inhibition, A549/ATCC; conditions: Non-Small Cell Lung Cancer
Protocol: as §1, §2

NCI-H522 = assay: NCI60 growth inhibition, NCI-H522; conditions: Non-Small Cell Lung Cancer
Protocol: as §1, §2

SF-295 = assay: NCI60 growth inhibition, SF-295; conditions: CNS Cancer; note: test concentration or dose not given here
Protocol: as §1, §2

SK-OV-3 = assay: NCI60 growth inhibition, SK-OV-3; conditions: Ovarian Cancer
Protocol: as §1, §2

786-0 = assay: NCI60 growth inhibition, 786-0; conditions: Renal Cancer
Protocol: as §1, §2

NCI-H322M = assay: NCI60 growth inhibition, NCI-H322M; conditions: Non-Small Cell Lung Cancer
Protocol: as §1, §2

A498 = assay: NCI60 growth inhibition, A498; conditions: Renal Cancer; note: test concentration or dose not given here
Protocol: as §1, §2

HCT-15 = assay: NCI60 growth inhibition, HCT-15; conditions: Colon Cancer; note: test concentration or dose not given here
Protocol: as §1, §2

HT29 = assay: NCI60 growth inhibition, HT29; conditions: Colon Cancer
Protocol: as §1, §2

IGROV1 = assay: NCI60 growth inhibition, IGROV1; conditions: Ovarian Cancer
Protocol: as §1, §2

NCI-H23 = assay: NCI60 growth inhibition, NCI-H23; conditions: Non-Small Cell Lung Cancer
Protocol: as §1, §2

DU-145 = assay: NCI60 growth inhibition, DU-145; conditions: Prostate Cancer
Protocol: as §1, §2

MDA-MB-468 = assay: NCI60 growth inhibition, MDA-MB-468; conditions: Breast Cancer; note: test concentration or dose not given here
Protocol: as §1, §2

SK-MEL-28 = assay: NCI60 growth inhibition, SK-MEL-28; conditions: Melanoma
Protocol: as §1, §2

MDA-MB-231/ATCC = assay: NCI60 growth inhibition, MDA-MB-231/ATCC; conditions: Breast Cancer
Protocol: as §1, §2

SMILES: O=C1c2cccnc2C(=O)c2nc3cc(N4CCN(C5CC5)CC4)ccc3nc21 [Compound 49, 9-(4-cyclopropylpiperazin-1-yl)pyrido[2,3-b]phenazine-5,12-dione]
- Growth inhibition (% control) GIPRCNT (HCT-116): 0.8509 % control
- Growth inhibition (% control) GIPRCNT (LOX IMVI): −46.5487 % control
- Growth inhibition (% control) GIPRCNT (SK-MEL-2): −16.262 % control
- Growth inhibition (% control) GIPRCNT (NCI-H226): −49.1 % control
- Growth inhibition (% control) GIPRCNT (UACC-257): −84.4508 % control
- Growth inhibition (% control) GIPRCNT (M14): −91.1652 % control
- Growth inhibition (% control) GIPRCNT (EKVX): 27.37 % control
- Growth inhibition (% control) GIPRCNT (HOP-62): −56.64 % control
- Growth inhibition (% control) GIPRCNT (HOP-92): 62.46 % control
- Growth inhibition (% control) GIPRCNT (UACC-62): −98.5184 % control
- Growth inhibition (% control) GIPRCNT (NCI-H460): −54.12 % control
- Growth inhibition (% control) GIPRCNT (CAKI-1): −5.268 % control
- Growth inhibition (% control) GIPRCNT (ACHN): −35.0589 % control
- Growth inhibition (% control) GIPRCNT (SNB-75): −64.69 % control
- Growth inhibition (% control) GIPRCNT (T-47D): 22.46 % control
- Growth inhibition (% control) GIPRCNT (K-562): 0.8659 % control
- Growth inhibition (% control) GIPRCNT (RPMI-8226): 25.33 % control
- Growth inhibition (% control) GIPRCNT (SNB-19): −81.52 % control
- Growth inhibition (% control) GIPRCNT (U251): −32.64 % control
- Growth inhibition (% control) GIPRCNT (MALME-3M): −100 % control
- Growth inhibition (% control) GIPRCNT (SF-268): 12.46 % control
- Growth inhibition (% control) GIPRCNT (CCRF-CEM): 26.17 % control
- Growth inhibition (% control) GIPRCNT (SR): −10.03 % control
- Growth inhibition (% control) GIPRCNT (HCC-2998): −80.83 % control
- Growth inhibition (% control) GIPRCNT (MCF7): −56.1231 % control
- Growth inhibition (% control) GIPRCNT (OVCAR-3): −1.5625 % control
- Growth inhibition (% control) GIPRCNT (SW-620): −37.75 % control
- Growth inhibition (% control) GIPRCNT (NCI/ADR-RES): 20.15 % control
- Growth inhibition (% control) GIPRCNT (MDA-MB-435): −87.4148 % control
- Growth inhibition (% control) GIPRCNT (SF-539): −99.37 % control
- Growth inhibition (% control) GIPRCNT (SN12C): −94.7287 % control
- Growth inhibition (% control) GIPRCNT (OVCAR-5): −82.2933 % control
- Growth inhibition (% control) GIPRCNT (UO-31): −99.9594 % control
- Growth inhibition (% control) GIPRCNT (BT-549): −93.6913 % control
- Growth inhibition (% control) GIPRCNT (SK-MEL-5): −98.1218 % control
- Growth inhibition (% control) GIPRCNT (MOLT-4): 26.2 % control
- Growth inhibition (% control) GIPRCNT (TK-10): 0.1224 % control
- Growth inhibition (% control) GIPRCNT (KM12): 9.272 % control
- Growth inhibition (% control) GIPRCNT (COLO 205): −68.34 % control
- Growth inhibition (% control) GIPRCNT (OVCAR-4): −87.768 % control
- Growth inhibition (% control) GIPRCNT (HL-60(TB)): −43.09 % control
- Growth inhibition (% control) GIPRCNT (PC-3): 11.58 % control
- Growth inhibition (% control) GIPRCNT (HS 578T): −36.5499 % control
- Growth inhibition (% control) GIPRCNT (A549/ATCC): −53.27 % control
- Growth inhibition (% control) GIPRCNT (NCI-H522): −50.54 % control
- Growth inhibition (% control) GIPRCNT (SF-295): −88.89 % control
- Growth inhibition (% control) GIPRCNT (SK-OV-3): −78.6244 % control
- Growth inhibition (% control) GIPRCNT (786-0): 28.12 % control
- Growth inhibition (% control) GIPRCNT (NCI-H322M): −96.67 % control
- Growth inhibition (% control) GIPRCNT (A498): −88.1317 % control
- Growth inhibition (% control) GIPRCNT (HCT-15): −58.81 % control
- Growth inhibition (% control) GIPRCNT (HT29): −21.31 % control
- Growth inhibition (% control) GIPRCNT (IGROV1): −13.7639 % control
- Growth inhibition (% control) GIPRCNT (NCI-H23): −56.52 % control
- Growth inhibition (% control) GIPRCNT (DU-145): −75.9298 % control
- Growth inhibition (% control) GIPRCNT (MDA-MB-468): −21.9933 % control
- Growth inhibition (% control) GIPRCNT (SK-MEL-28): −76.8851 % control
- Growth inhibition (% control) GIPRCNT (MDA-MB-231/ATCC): 15.11 % control
